Experimental data taken from patent US20240138411A1, “METHOD OF […] OF SUGARCANE” (CORTEVA AGRISCIENCE LLC, priority 2021, published 2024).

System: sugarcane
Experiment: Sugarcane flowering inhibition field trials, floral induction rated on UFSCar scale
Format: in vivo
Experimental: In order to explore the activity of florpyrauxifen as flowering inhibitor in sugarcane, field studies were carried out. Florpyrauxifen-benzyl was tested at rates from 2 to 20 grams active ingredient per hectare (g ai/ha) and compared to Ethrel® 720 (Bayer), the standard treatment. The flowering inhibition effect was assessed by checking the floral induction in sugarcane through the percentage scale recommended by UFSCar (Federal University of Sao Carlos, Sao Paulo, Brazil).
Four trials were carried out in sugarcane where florpyrauxifen-benzyl (Rinskor®), applied at a rate of 2 to 20 g ai/ha, was compared to ethephon (Ethrel® 720) applied at a rate of 475 g ai/ha. Control plots of untreated sugarcane were also evaluated. Rinskor® and Ethrel® 720 were diluted in water and a single application for each study (backpack sprayer) was performed delivering 50 L of spray solution per ha at the reproductive stage of sugarcane and at a maximum 150 days before harvest. The activity of florpyrauxifen-benzyl as a flowering inhibitor was measured via assessments (Scale of flowering inhibition—see chart 1) performed at 0, 14, 30, 45, 60, 75, 90, 120, 150 days after application, or up to harvest time. The assessments were measured in sugarcane stems, rating the flowering induction according to the UFSCar scale shown below. Significance of treatment effect was evaluated with F-approximate test (α=0.1) and least square means from different treatments were compared with Tukey's test.

## COc1c(Cl)ccc(-c2nc(C(=O)OCc3ccccc3)c(Cl)c(N)c2F)c1F [Rinskor, florpyrauxifen-benzyl]
Table 1, 75 DAA, 2 g ai/ha
  % Referring to Scale: 13.5%
  Frequency 1/1 (0%): 12.5%
  Frequency 2/1 (15%): 85.0%
  Frequency 3/1 (30%): 2.5%
  Frequency 4/1 (50%): 0.0%
  Frequency 4/2 (80%): 0.0%
  Frequency 4/3 (90%): 0.0%
  Frequency 4/4 (100%): 0.0%
Table 1, 75 DAA, 5 g ai/ha
  % Referring to Scale: 14.6%
  Frequency 1/1 (0%): 7.5%
  Frequency 2/1 (15%): 87.5%
  Frequency 3/1 (30%): 5.0%
  Frequency 4/1 (50%): 0.0%
  Frequency 4/2 (80%): 0.0%
  Frequency 4/3 (90%): 0.0%
  Frequency 4/4 (100%): 0.0%
Table 1, 75 DAA, 10 g ai/ha
  % Referring to Scale: 11.3%
  Frequency 1/1 (0%): 25.0%
  Frequency 2/1 (15%): 75.0%
  Frequency 3/1 (30%): 0.0%
  Frequency 4/1 (50%): 0.0%
  Frequency 4/2 (80%): 0.0%
  Frequency 4/3 (90%): 0.0%
  Frequency 4/4 (100%): 0.0%
Table 1, 75 DAA, 15 g ai/ha
  % Referring to Scale: 10.1%
  Frequency 1/1 (0%): 32.5%
  Frequency 2/1 (15%): 67.5%
  Frequency 3/1 (30%): 0.0%
  Frequency 4/1 (50%): 0.0%
  Frequency 4/2 (80%): 0.0%
  Frequency 4/3 (90%): 0.0%
  Frequency 4/4 (100%): 0.0%
Table 1, 75 DAA, 20 g ai/ha
  % Referring to Scale: 10.5%
  Frequency 1/1 (0%): 30.0%
  Frequency 2/1 (15%): 70.0%
  Frequency 3/1 (30%): 0.0%
  Frequency 4/1 (50%): 0.0%
  Frequency 4/2 (80%): 0.0%
  Frequency 4/3 (90%): 0.0%
  Frequency 4/4 (100%): 0.0%
Table 1, 90 DAA, 2 g ai/ha
  % Referring to Scale: 13.1%
  Frequency 1/1 (0%): 12.5%
  Frequency 2/1 (15%): 87.5%
  Frequency 3/1 (30%): 0.0%
  Frequency 4/1 (50%): 0.0%
  Frequency 4/2 (80%): 0.0%
  Frequency 4/3 (90%): 0.0%
  Frequency 4/4 (100%): 0.0%
Table 1, 90 DAA, 5 g ai/ha
  % Referring to Scale: 11.3%
  Frequency 1/1 (0%): 25.0%
  Frequency 2/1 (15%): 75.0%
  Frequency 3/1 (30%): 0.0%
  Frequency 4/1 (50%): 0.0%
  Frequency 4/2 (80%): 0.0%
  Frequency 4/3 (90%): 0.0%
  Frequency 4/4 (100%): 0.0%
Table 1, 90 DAA, 10 g ai/ha
  % Referring to Scale: 14.3%
  Frequency 1/1 (0%): 7.5%
  Frequency 2/1 (15%): 90.0%
  Frequency 3/1 (30%): 2.5%
  Frequency 4/1 (50%): 0.0%
  Frequency 4/2 (80%): 0.0%
  Frequency 4/3 (90%): 0.0%
  Frequency 4/4 (100%): 0.0%
Table 1, 90 DAA, 15 g ai/ha
  % Referring to Scale: 13.9%
  Frequency 1/1 (0%): 7.5%
  Frequency 2/1 (15%): 92.5%
  Frequency 3/1 (30%): 0.0%
  Frequency 4/1 (50%): 0.0%
  Frequency 4/2 (80%): 0.0%
  Frequency 4/3 (90%): 0.0%
  Frequency 4/4 (100%): 0.0%
Table 1, 90 DAA, 20 g ai/ha
  % Referring to Scale: 13.5%
  Frequency 1/1 (0%): 15.0%
  Frequency 2/1 (15%): 80.0%
  Frequency 3/1 (30%): 5.0%
  Frequency 4/1 (50%): 0.0%
  Frequency 4/2 (80%): 0.0%
  Frequency 4/3 (90%): 0.0%
  Frequency 4/4 (100%): 0.0%
Table 1, 120 DAA, 2 g ai/ha
  % Referring to Scale: 13.9%
  Frequency 1/1 (0%): 7.5%
  Frequency 2/1 (15%): 92.5%
  Frequency 3/1 (30%): 0.0%
  Frequency 4/1 (50%): 0.0%
  Frequency 4/2 (80%): 0.0%
  Frequency 4/3 (90%): 0.0%
  Frequency 4/4 (100%): 0.0%
Table 1, 120 DAA, 5 g ai/ha
  % Referring to Scale: 12.8%
  Frequency 1/1 (0%): 15.0%
  Frequency 2/1 (15%): 85.0%
  Frequency 3/1 (30%): 0.0%
  Frequency 4/1 (50%): 0.0%
  Frequency 4/2 (80%): 0.0%
  Frequency 4/3 (90%): 0.0%
  Frequency 4/4 (100%): 0.0%
Table 1, 120 DAA, 10 g ai/ha
  % Referring to Scale: 13.9%
  Frequency 1/1 (0%): 7.5%
  Frequency 2/1 (15%): 92.5%
  Frequency 3/1 (30%): 0.0%
  Frequency 4/1 (50%): 0.0%
  Frequency 4/2 (80%): 0.0%
  Frequency 4/3 (90%): 0.0%
  Frequency 4/4 (100%): 0.0%
Table 1, 120 DAA, 15 g ai/ha
  % Referring to Scale: 13.9%
  Frequency 1/1 (0%): 7.5%
  Frequency 2/1 (15%): 92.5%
  Frequency 3/1 (30%): 0.0%
  Frequency 4/1 (50%): 0.0%
  Frequency 4/2 (80%): 0.0%
  Frequency 4/3 (90%): 0.0%
  Frequency 4/4 (100%): 0.0%
